Measurements: publication PMC3475094, “Identification Of Small Molecule TRABID Deubiquitinase Inhibitors By Computation-Based Virtual Screen” (BMC Chemical Biology, 2012)

Biological target: T1, TRABID (Homo sapiens, UniProt Q9UGI0)
T1 construct: gene ZRANB1; full length TRABID
T1 sequence (Q9UGI0 1-708): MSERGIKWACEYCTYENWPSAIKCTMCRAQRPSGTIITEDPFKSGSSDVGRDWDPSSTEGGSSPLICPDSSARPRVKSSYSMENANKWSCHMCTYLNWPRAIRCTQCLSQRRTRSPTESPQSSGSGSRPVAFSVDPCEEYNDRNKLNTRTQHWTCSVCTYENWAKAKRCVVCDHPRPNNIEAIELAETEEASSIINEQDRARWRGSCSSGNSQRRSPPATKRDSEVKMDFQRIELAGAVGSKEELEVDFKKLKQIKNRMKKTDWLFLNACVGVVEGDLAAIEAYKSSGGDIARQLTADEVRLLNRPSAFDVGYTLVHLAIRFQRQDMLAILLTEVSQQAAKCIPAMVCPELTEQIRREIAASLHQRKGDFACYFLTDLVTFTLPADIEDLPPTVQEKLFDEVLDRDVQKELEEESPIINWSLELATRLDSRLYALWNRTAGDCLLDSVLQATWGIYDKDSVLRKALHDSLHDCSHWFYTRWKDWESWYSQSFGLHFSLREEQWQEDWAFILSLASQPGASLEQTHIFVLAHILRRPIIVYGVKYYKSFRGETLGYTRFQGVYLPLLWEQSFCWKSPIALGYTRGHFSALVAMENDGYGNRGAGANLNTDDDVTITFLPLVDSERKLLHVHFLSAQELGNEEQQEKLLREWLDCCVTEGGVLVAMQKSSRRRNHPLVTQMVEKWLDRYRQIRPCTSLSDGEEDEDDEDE
Assay: Hexa-K63 ubiquitin cleavage assay, Western blot quantification
Assay type: biochemical

| Structure (SMILES) | IC50 [µM] |
| --- | --- |
| Oc1cc(Br)c(O)cc1Br [compound 133363, NSC133363] | 7.17 |
| Cc1cc(O)c(Cl)cc1O [compound 29034, NSC29034] | 7.54 |
